How the values were obtained:
[1] = LNP size and polydispersity index by dynamic light scattering (DLS); type: physicochemical; conditions: hEPO mRNA, Lipid:Cholesterol:DSPC:PEG-2k 50:38.5:10:1.5, N:P 6
Source text: (§1) Various lipid nanoparticle compositions comprising a nucleic acid payload are characterized by a variety of methods. For example, dynamic light scattering (DLS) is used to determine particle sizes (Wyatt Dynapro Platereader 111). In addition, instruments such as the Zetasizer Nano ZS (Malvern Instruments Ltd) are used to measure multiple physical properties of a lipid nanoparticle composition, such as particle size, polydispersity index (PDI), and zeta potential. Fluorescence-based assays are used to determine the efficiencies of nucleic acid encapsulation in the lipid nanoparticles. Fluorescence-based assays are used to determine the “apparent pKa” of the lipid nanoparticles. Both fluorescence assays are evaluated on a Varioskanlux plate reader (ThermoScientific).
After formulation and processing of the lipid nanoparticle compositions, the Z-average size of lipid nanoparticle composition are assayed by dynamic light scattering (DLS) (e.g., using a Wyatt Dynapro Platereader III or Malvern Zetasizer ZS). Briefly, an aliquot of 2 uL of the processed nanoparticle composition mixture (at an RNA concentration of approximately 0.5 mg/mL) is diluted into 50 uL phosphate buffered saline (0.1×PBS) and loaded into a 384 well plate. The sample is then analyzed to determine nanoparticle size.
(§2) LNPs were characterized by dynamic light scattering (DLS) measurement for measuring its hydrodynamic radius and polydispersity index (PDI). Encapsulation efficiency (EE %) and total RNA concentration were quantitated using a fluorescence based Ribogreen assay.

[2] = Zeta potential assay of LNPs; type: physicochemical; conditions: LNP, hEPO mRNA, Lipid:Cholesterol:DSPC:PEG-2k 50:38.5:10:1.5, N:P 6
Source text: as §1
A Zetasizer Nano ZS (Malvern Instruments Ltd) is used to determine the zeta potential of the nanoparticle compositions. Briefly, a 5 uL aliquot of an approximately 0.5 mg mRNA/mL sample is diluted into 800 uL 0.1×PBS. This sample is then transferred to a disposable conducting cuvette and the zeta potential is measured.

[3] = Encapsulation efficiency, fluorescence based Ribogreen assay; type: physicochemical; conditions: LNP, hEPO mRNA, Lipid:Cholesterol:DSPC:PEG-2k 50:38.5:10:1.5, N:P 6
Protocol: For lipid nanoparticle formulations containing an RNA, a QUANTIT™ RIBOGREEN® RNA assay (Invitrogen Corporation) is used to evaluate the encapsulation of RNA within the lipid nanoparticle formulation.
The samples are diluted to ˜10 ug/ml in TE buffer. In a 96 well plate, 50 ul of the diluted sample is added to 50 uL TE buffer in duplicates and 20 uL of diluted sample is added to 80 uL Triton X buffer (2% triton in TE buffer) in duplicates. The plate is incubated for 10 minutes at room temperature. Next, RIBOGREEN® is diluted 1:200 in TE BUFFER, and 100 uL is added to each sample well. The fluorescence intensity is measured using a fluorescence plate reader (e.g., Varioskanlux, ThermoScientific) at an excitation wavelength of about 480 nm and an emission wavelength of about 520 nm. The encapsulation efficiency can be determined by using the percentage ratio of non-encapsulated RNA (TE sample) over the total RNA (TX sample), then subtracting from 100 to find the percentage of encapsulated RNA amount.
as §2

[4] = Apparent pKa of LNPs (TNS assay); type: physicochemical; conditions: LNP, hEPO mRNA, Lipid:Cholesterol:DSPC:PEG-2k 50:38.5:10:1.5, N:P 6
Source text: as §1
The apparent pKa of lipid nanoparticle composition is measured using a 6-(p-Toluidino)-2-naphthalenesulfonic acid (TNS) assay. Briefly, lipid nanoparticles (10 uL of approximately 0.5 mg mRNA/mL) and TNS probe (40 uL of 1 mM stock) are added to 750 uL of TNS buffer (25 mM citric acid, 20 mM sodium phosphate, 150 mM NaCl, and 20 mM ammonium acetate), at a pH ranging from 2 to 10. 20 uL of each sample are added to 80 uL of buffer at each pH in a 96-well plate. The plate is incubated for 10 minutes, and the fluorescence signal is measured by means of a spectrofluorometer (Varioskanlux, ThermoScientific) with excitation/emission settings of λex=321 nm, and λem=445 nm. The apparent pKa of the nanoparticle composition is determined by deriving the pH at which 50% of the pH 2 fluorescent signal is present. All datapoints are normalized to the fluorescent signal at pH 2.

C57BL/6 female mice = assay: In vivo hEPO expression of hEPO mRNA LNPs, serum ELISA; conditions: LNP 50:38.5:10:1.5, N:P 6, 0.2 mg/kg hEPO mRNA, tail vein injection, blood serum 6 h post-administration
Protocol: In this example, messenger RNA molecules encoding hEPO proteins were formulated in lipid nanoparticles for delivery in vivo. The lipid nanoparticle (LNP) formulations comprised of a lipid composition of ionizable lipid: helper lipid: cholesterol. DMG-PEG2k at 50:10:38.5:1.5 mol %. The lipid mixture in ethanol was mixed with hEPO mRNA in RNA acidifying buffer (10 mM citrate, pH 4) at an ionizable-lipid-nitrogen-to-RNA-phosphate ratio (N:P) of 6 using a microfluidic device (Precision NanoSystems, Inc.) at a combined flow rate of 10 mL/min (7.5 mL/min for aqueous buffer, RNA and 2.5 mL/min for ethanol, lipid mix). The resulting particles were neutralized by buffer exchange into Dulbecco's phosphate buffer solution via PD-10 desalting column. The neutralized particles were concentrated using 100 kDa AMICON® Ultra centrifugal filters and sterile filtered using 0.2 um syringe filters. Samples were then characterized and diluted as needed (3 replicates).
The in vivo studies were performed in C57BL/6 female mice at 6 to 8 weeks weighing in at approximately 20 g. The LNPs formulated with different ionizable lipids at 0.2 mg/kg of hEPO mRNA were administered by tail vein injection and animals were euthanized at 6 h post-administration for blood serum sample collection. The hEPO levels from the samples were analyzed and cross-compared by enzyme-linked immunoassay (ELISA) according to manufacturer's protocol. The hEPO expression levels for each of the LNPs was compared to a control LNP comprising SM102 (DC Chemicals Cat. No. DC52025). (FIG. 1).

SMILES | PDI [1] | Size [1] [nm] | Zeta [2] [mV] | EE [3] [%] | pKa [4] | hEPO (C57BL/6 female mice) [ng/mL]
CCCCCCCCCCCOC(=O)CCN(CCO)CCCCCCCC(=O)OC(CCCCCCCC)CCCCCCCC [Lipid 4] | 0.103 | 56.2 | −9.3 | 97.5 | 5.1 | 0.00
CCCCCCCCCNP(=O)(OCC)OCCCCCN(CCO)CCCCCCCC(=O)OC(CCCCCCCC)CCCCCCCC (centres unmarked) [Lipid 16] | 0.116 | 91.6 | −0.4 | 88.1 | 7.0 | 79.22
CCCCCCCCCCOP(=O)(NCCCCCN(CCO)CCCCCCCC(=O)OC(CCCCCCCC)CCCCCCCC)OCC (centres unmarked) [Lipid 10] | 0.064 | 85.6 | 0.8 | 99.6 | 7.2 | 90.05
CCCCCCCCCCNP(=O)(OCC)OCCCCCN(CCO)CCCCCCCC(=O)OC(CCCCCCCC)CCCCCCCC (centres unmarked) [Lipid 15] | 0.165 | 83.1 | 0.2 | 94.8 | 7.0 | 123.69
CCCCCCCCCCCOC(=O)CCCCCN(CCO)CCCCCCCOP(=O)(NCCCCCCCCC)OCCCCCCCCC (centres unmarked) [Lipid 7] | 0.296 | 145.3 | −2.0 | 97.2 | 6.9 | 80.47
CCCCCCCCCCCCOC(=O)CCN(CCO)CCCCCCCC(=O)OC(CCCCCCCC)CCCCCCCC [Lipid 3] | 0.48 | 62.8 | −9.2 | 97.6 | 5.1 | 0.00
CCCCCCCCCCCOC(=O)CCCCCN(CCO)CCCCCCCNP(=O)(OCCCCCCCCC)OCCCCCCCCC [Lipid 5] | 0.358 | 87.4 | −1.0 | 95.3 | 6.8 | 114.89
CCCCCCCCCCCCCOC(=O)CCN(CCO)CCCCCCCC(=O)OC(CCCCCCCC)CCCCCCCC [Lipid 2] | 0.399 | 68.8 | 0.1 | 97.9 | 5.1 | 0.00
CCCCCCCCCCCNP(=O)(OCC)OCCCCCN(CCO)CCCCCCCOP(=O)(NCCCCCCCCC)OCCCCCCCCC (centres unmarked) [Lipid 12] | 0.316 | 87.6 | 3.5 | 99.3 | 8.3 | 0.00
CCCCCCCCCCCNP(=O)(OCC)OCCCCCN(CCO)CCCCCCCC(=O)OC(CCCCCCCC)CCCCCCCC (centres unmarked) [Lipid 14] | 0.248 | 101.5 | 0.9 | 98.3 | 6.9 | 33.98
CCCCCCCCCCCOC(=O)CCCCCN(CCO)CCCCCCCNP(=O)(OCCCCCCCC)OCCCCCCCC [Lipid 6] | 0.227 | 132.7 | −0.4 | 95.8 | 6.9 | 304.28
CCCCCCCCCCCOC(=O)CCCCCN(CCO)CCCCCCCOP(=O)(NCCCCCCCC)OCCCCCCCC (centres unmarked) [Lipid 8] | 0.302 | 134.7 | 0.1 | 94.2 | 7.0 | 93.09
CCCCCCCCCCCOP(=O)(NCCCCCN(CCO)CCCCCCCC(=O)OC(CCCCCCCC)CCCCCCCC)OCC (centres unmarked) [Lipid 9] |  |  |  |  | 7.0 | 184.44

Further lines, with some results ahead:

PDI [1] | Size [1] [nm] | Zeta [2] [mV] | EE [3] [%] | pKa [4] | SMILES | hEPO (C57BL/6 female mice) [ng/mL]
0.169 | 75.1 | −14.1 | 98.8 | 6.1 | CCCCCCCCC(CC)OC(=O)CCCCCCCN(CCCCCCCC(=O)OC(CCCCCCCC)CCCCCCCC)CCCNc1nnc(N)[nH]1 (centres unmarked) [Lipid 17] | 6.59
0.159 | 62.7 | −15.3 | 99.9 | 5.8 | CCCCCCCCC(CC)OC(=O)CCCCCCCN(CCCCCCCC(=O)OC(CCCCCCCC)CCCCCCCC)CCCNc1cc(N)n[nH]1 (centres unmarked) [Lipid 22] | 78.29
0.162 | 58.6 | −14.5 | 95.2 | 6.6 | CCCCCCCCC(CC)OC(=O)CCCCCCCN(CCCCCCCC(=O)OC(CCCCCCCC)CCCCCCCC)CCCNS(=O)(=O)N(C)C (centres unmarked) [Lipid 20] | 361.46
0.106 | 78.70 | −3.1 | 96.7 | 7 | CCCCCCCCCCCOC(=O)CCCCCN(CCO)CCCCCCCC(=O)OC(CCCCCCCC)CCCCCCCC [SM-102, heptadecan-9-yl 8-((2-hydroxyethyl)(6-oxo-6-(undecyloxy)hexyl)amino)octanoate, reference compound] | 2457.05
0.108 | 67.1 | 2.4 | 96.7 | 7.8 | CCCCCCCCCNP(=O)(OCCCCCCCCC)OCCCCCCCN(CCO)CCCCCOP(=O)(NCCCCCCCCC)OCCCCCCCCC (centres unmarked) [Lipid 13] | 49.71
0.079 | 67.2 | −12.8 | 98.9 | 6.5 | CCCCCCCCC(CC)OC(=O)CCCCCCCN(CCCCCCCC(=O)OC(CCCCCCCC)CCCCCCCC)CCCn1nc(N)cc1N (centres unmarked) [Lipid 18] | 386.98
0.183 | 60.9 | −27.6 | 96.9 | 6.3 | CCCCCCCCC(CC)OC(=O)CCCCCCCN(CCCCCCCC(=O)OC(CCCCCCCC)CCCCCCCC)CCCNS(=O)(=O)NC (centres unmarked) [Lipid 19] | 1014.79
0.277 | 83.3 | −12.3 | 96.4 | 6.5 | CCCCCCCCC(CC)OC(=O)CCCCCCCN(CCCCCCCC(=O)OC(CCCCCCCC)CCCCCCCC)CCCn1nc(N)nc1N (centres unmarked) [Lipid 21] | 0.00

From US20240293318A1, “CLEAVABLE LINKER-CONTAINING IONIZABLE LIPIDS AND LIPID CARRIERS FOR THERAPEUTIC COMPOSITIONS” (Flagship Pioneering Innovations VII, LLC, priority 2023, published 2024)
